Measurements from PubChem BioAssay AID1259407 (Chemical Carcinogenesis Research Information System (CCRIS), 2018).
Calls of active or inactive are those of the source. No rule for the calls is given here.

Tested on: CCRIS mutagenicity, Ames/micronucleus/aberration tests
Test: CCRIS mutagenicity studies

Q: With `B#B` as the compound, how does the mutagenic call (Test System: AMES SALMONELLA TYPHIMURIUM, Strain/Indicator: TA98, Metabolic Activation: HAMSTER, LIVER, S-9, AROCLOR 1254 (10%), Method: PREINCUBATION) read?
A: The mutagenic call was “inactive; negative”.

Q: And the mutagenic call (Test System: AMES SALMONELLA TYPHIMURIUM, Strain/Indicator: TA98, Metabolic Activation: NONE, Method: GAS EXPOSURE)?
A: Its mutagenic call is “active; positive”.

Q: And the mutagenic call (Test System: AMES SALMONELLA TYPHIMURIUM, Strain/Indicator: TA98, Metabolic Activation: NONE, Method: PREINCUBATION)?
A: Its mutagenic call is “inactive; negative”.

Q: What about the mutagenic call (Test System: AMES SALMONELLA TYPHIMURIUM, Strain/Indicator: TA98, Metabolic Activation: RAT LIVER S-9, PHENOBARBITAL AND BETA-NAPHTHOFLAVONE, Method: GAS EXPOSURE) of the same compound?
A: Its mutagenic call is “active; positive”.

Q: What about the mutagenic call (Test System: AMES SALMONELLA TYPHIMURIUM, Strain/Indicator: TA98, Metabolic Activation: RAT, LIVER, S-9, AROCLOR 1254 (10%), Method: PREINCUBATION) of the same compound?
A: Its mutagenic call is “inactive; negative”.

Q: And the mutagenic call (Test System: AMES SALMONELLA TYPHIMURIUM, Strain/Indicator: TA98, Metabolic Activation: RAT, LIVER, S-9, PHENOBARBITAL AND 5,6-BENZOFLAVONE, Method: GAS EXPOSURE)?
A: Its mutagenic call is “active; positive”.

Q: What about the mutagenic call (Test System: AMES SALMONELLA TYPHIMURIUM, Strain/Indicator: TA100, Metabolic Activation: HAMSTER, LIVER, S-9, AROCLOR 1254 (10%), Method: PREINCUBATION) of the same compound?
A: Its mutagenic call is “inactive; negative”.

Q: What about the mutagenic call (Test System: AMES SALMONELLA TYPHIMURIUM, Strain/Indicator: TA100, Metabolic Activation: NONE, Method: PREINCUBATION) of the same compound?
A: Its mutagenic call is “inactive; negative”.

Q: What about the mutagenic call (Test System: AMES SALMONELLA TYPHIMURIUM, Strain/Indicator: TA100, Metabolic Activation: RAT LIVER S-9, PHENOBARBITAL AND BETA-NAPHTHOFLAVONE, Method: GAS EXPOSURE) of the same compound?
A: Its mutagenic call is “active; positive”.

Q: And the mutagenic call (Test System: AMES SALMONELLA TYPHIMURIUM, Strain/Indicator: TA100, Metabolic Activation: RAT, LIVER, S-9, AROCLOR 1254 (10%), Method: PREINCUBATION)?
A: Its mutagenic call is “inactive; negative”.

Q: And the mutagenic call (Test System: AMES SALMONELLA TYPHIMURIUM, Strain/Indicator: TA100, Metabolic Activation: RAT, LIVER, S-9, PHENOBARBITAL AND 5,6-BENZOFLAVONE, Method: GAS EXPOSURE)?
A: The mutagenic call was “active; positive”.

Q: And the mutagenic call (Test System: AMES SALMONELLA TYPHIMURIUM, Strain/Indicator: TA1535, Metabolic Activation: HAMSTER, LIVER, S-9, AROCLOR 1254 (10%), Method: PREINCUBATION)?
A: The mutagenic call was “inactive; negative”.

Q: And the mutagenic call (Test System: AMES SALMONELLA TYPHIMURIUM, Strain/Indicator: TA1535, Metabolic Activation: NONE, Method: GAS EXPOSURE)?
A: The mutagenic call was “inactive; negative”.

Q: What about the mutagenic call (Test System: AMES SALMONELLA TYPHIMURIUM, Strain/Indicator: TA1535, Metabolic Activation: NONE, Method: PREINCUBATION) of the same compound?
A: The mutagenic call was “inactive; negative”.

Q: What about the mutagenic call (Test System: AMES SALMONELLA TYPHIMURIUM, Strain/Indicator: TA1535, Metabolic Activation: RAT LIVER S-9, PHENOBARBITAL AND BETA-NAPHTHOFLAVONE, Method: GAS EXPOSURE) of the same compound?
A: The mutagenic call was “inactive; negative”.

Q: What about the mutagenic call (Test System: AMES SALMONELLA TYPHIMURIUM, Strain/Indicator: TA1535, Metabolic Activation: RAT, LIVER, S-9, AROCLOR 1254 (10%), Method: PREINCUBATION) of the same compound?
A: Its mutagenic call is “inactive; negative”.

Q: And the mutagenic call (Test System: AMES SALMONELLA TYPHIMURIUM, Strain/Indicator: TA1535, Metabolic Activation: RAT, LIVER, S-9, PHENOBARBITAL AND 5,6-BENZOFLAVONE, Method: GAS EXPOSURE)?
A: Its mutagenic call is “inactive; negative”.

Q: And the mutagenic call (Test System: AMES SALMONELLA TYPHIMURIUM, Strain/Indicator: TA1537, Metabolic Activation: HAMSTER, LIVER, S-9, AROCLOR 1254 (10%), Method: PREINCUBATION)?
A: Its mutagenic call is “inactive; negative”.

Q: What about the mutagenic call (Test System: AMES SALMONELLA TYPHIMURIUM, Strain/Indicator: TA1537, Metabolic Activation: NONE, Method: GAS EXPOSURE) of the same compound?
A: Its mutagenic call is “inactive; negative”.

Q: What about the mutagenic call (Test System: AMES SALMONELLA TYPHIMURIUM, Strain/Indicator: TA1537, Metabolic Activation: NONE, Method: PREINCUBATION) of the same compound?
A: Its mutagenic call is “inactive; negative”.

Q: And the mutagenic call (Test System: AMES SALMONELLA TYPHIMURIUM, Strain/Indicator: TA1537, Metabolic Activation: RAT LIVER S-9, PHENOBARBITAL AND BETA-NAPHTHOFLAVONE, Method: GAS EXPOSURE)?
A: The mutagenic call was “inactive; negative”.

Q: What about the mutagenic call (Test System: AMES SALMONELLA TYPHIMURIUM, Strain/Indicator: TA1537, Metabolic Activation: RAT, LIVER, S-9, AROCLOR 1254 (10%), Method: PREINCUBATION) of the same compound?
A: The mutagenic call was “inactive; negative”.

Q: And the mutagenic call (Test System: AMES SALMONELLA TYPHIMURIUM, Strain/Indicator: TA1537, Metabolic Activation: RAT, LIVER, S-9, PHENOBARBITAL AND 5,6-BENZOFLAVONE, Method: GAS EXPOSURE)?
A: Its mutagenic call is “inactive; negative”.

Q: And the mutagenic call (Test System: E. COLI, Strain/Indicator: WP2 UVRA, Metabolic Activation: NONE, Method: GAS EXPOSURE)?
A: The mutagenic call was “inactive; negative”.

Q: What about the mutagenic call (Test System: E. COLI, Strain/Indicator: WP2 UVRA, Metabolic Activation: RAT, LIVER, S-9, PHENOBARBITAL AND 5,6-BENZOFLAVONE, Method: GAS EXPOSURE) of the same compound?
A: The mutagenic call was “active; positive”.

Q: What about the mutagenic call (Test System: E.COLI, Strain/Indicator: WP2UVRA, Metabolic Activation: NONE, Method: GAS EXPOSURE) of the same compound?
A: Its mutagenic call is “inactive; negative”.

Q: What about the mutagenic call (Test System: E.COLI, Strain/Indicator: WP2UVRA, Metabolic Activation: RAT LIVER S-9, PHENOBARBITAL AND BETA-NAPHTHOFLAVONE, Method: GAS EXPOSURE) of the same compound?
A: The mutagenic call was “active; positive”.
